Tests used:
[1] = tested on: BALB/c mice; assay: Myelopoietic activity in 5-FU-treated BALB/c mice with or without CT26 tumor implantation; type: in vivo; settings: 5-FU 150 mg/kg i.p.
Method: BALB/c mice (6-10 weeks old, 20±5 g) were obtained and kept in specific pathogen-free conditions with a controlled temperature and humidity, under a 12-h light/dark cycle, and given free access to food and water. All experiments were performed in accordance with the guidelines provided in the NIH Guide for the Care and Use of Laboratory Animals (DHHS publication No. NIH 85-23, revised 1996). CT26 murine colon adenocarcinoma and BALB/c syngenic were maintained in RPMI 1640 medium (Life technology, Grand Island, N.Y.) supplemented with 10% heat-inactivated FCS (HyClone, Logan, Utah) and 2 mM L-glutamine (Sigma, St. Louis, Mo.), and cultured at 37° C. in a humidified atmosphere containing 5% CO2. These cells were subcutaneously implanted into left flank of BALB/c mice.
For non-tumor implanted experiments, 5-FU (150 mg/kg body weight) was intraperitoneally (i.p.) injected into BALB/c mice on day 0, and PSBS (100 or 400 mg/kg body weight) was given by oral or interperitoneal administration daily once for 5 consecutive days 6 h after 5-FU injection. Mice in control group received normal saline at the same time. While in tumor-implanted model, 1×10^6 CT26 tumor cells in PBS per mouse was s.c. injected in the left flank of mice. […]

[2] = tested on: 5-FU-treated mice

- number of leukocytes [1]: significantly reduced
- CFU-GM colony numbers ([2]; 5-FU alone, single dose 150 mg/kg i.p., day 11): 41±5 colonies
- myelosuppression ([2]; mouse, in vivo, ip, 150 mg/kg): apparent myelosuppression
- number of leukocytes ([2]; mouse, in vivo, ip, 150 mg/kg): significantly decreased
SMILES: O=c1[nH]cc(F)c(=O)[nH]1 [5-FU, 5-fluorouracil]

From patent US6838096B2, “Black soybean polysaccharides” (Taipei Veterans General Hospital, priority 2001, dated 2005)
